From patent US20230226065A1, “ANTI-INFLAMMATORY COMPOSITIONS, METHODS AND USES THEREOF” (COMVITA LIMITED, priority 2020, published 2023)

Legend:
recombinant MMP-9 enzyme = biological target: T1, recombinant MMP-9 enzyme (Homo sapiens, UniProt P14780); experiment: MMP-9 inhibitor screening assay (fluorometric); assay type: biochemical; conditions: 40 μg/ml; no significant difference to NNGH control
T1 construct: purchased Abcam ab139449
Experimental: The MMP-9 inhibitor screening assay (fluorometric) kits were purchased from Abcam (Melbourne, Australia). The fluorometric kit contains the recombinant MMP-9 enzyme, MMP inhibitor NNGH (N-isobutyl-N-[4-methoxyphenylsulfonyl]glycyl hydroxamic acid), MMP fluorogenic substrate solubilised in DMSO, the fluorometric assay buffer and 96-well clear microplate.
Inhibitory activity on MMP-9 was assessed using the commercial MMP-9 inhibitor screening assay kit. MMP-9 activity was expressed as a change in fluorescence intensity measured using SpectraMax iD3 multi-mode microplate reader (Molecular Devices, San Jose, USA).
The assay employs a FRET-tagged (fluorescence resonance energy transfer) substrate, which can be hydrolysed by MMP-9 at a specific site (Abcam, 2018). The cleavage of the FRET substrate releases the quenched fluorescent Mca (7-methoxycoumarin-4-yl)-acetyl group (Abcam, 2018). The kit employs a quenched fluorogenic substrate Mca-Pro-Leu-Gly-Leu-Dpa-Ala-Arg-NH2, where the Mca fluorescence is quenched by Dpa until cleavage by MMPs. The amount of fluorescent product yielded by MMP-9 can be detected fluorometrically and it is proportional to the enzyme activity. Fluorescence were measured at ex320 nm-em395 nm to minimise fluorescence interference from 3,6,7-trimethyllumazine at ex330 nm-em470 nm. […]

[1] = Simulated gastrointestinal digestion (SGF then SIF), HPLC retention of 3,6,7-trimethyllumazine; assay type: in vitro ADME; conditions: for remaining amount of 3,6,7-trimethyllumazine: pure compound
Experimental: The simulated gastrointestinal digestion was carried out using a static model. The simulated gastric fluid (SGF) and the simulated intestinal fluid (SIF) were prepared in accordance with a global consensus protocol (Minekus et al 2014). The SGF has a pH 3 to mimic the fed-state of the stomach. When mixed with Manuka honey (or a honey solution), the final mixture contains 2000 U/mL of pepsin. The SIF has pH 7 to mimic the fed-state of the small intestine, containing 2 mg/mL of pancreatin (8×USP, or based on a protease activity of 200 U/mL) and 20 mM of porcine bile extract before use.
In the simulated gastric digestion, 2 g of Manuka honey was incubated in 2 mL of SGF at 37° C. under 95 rpm shaking for a period of 2 h (triplicates). At selected time points (0, 30, 60 and 120 min), a predetermined volume (0.1 mL) of the mixture was withdrawn for 3,6,7-trimethyllumazine analysis. The solution for analysis was kept on ice with an addition of 0.1 mL SIF (pH 7) to stop pepsin activity. As a control group, a pure 3,6,7-trimethyllumazine solution was treated in the same way for comparative purposes.
Following the 2 h gastric digestion, the resulting solution was mixed with SIF (pH 7) at a volume ratio of 1:1, to have a final mixture that contains 1 mg/mL of pancreatin and 10 mM of porcine bile extract. This mixture was incubated at 37° C. under 95 rpm shaking for 4 h (triplicates). At selected time points (0, 60, 120 and 240 min), a predetermined volume (0.1 mL) of the mixture was withdrawn for 3,6,7-trimethyllumazine concentration analysis. The pancreatin activity in the withdrawn solution was quenched by adding 5 mmol/L Pefabloc® (Egger et al 2019).
The gastric and intestinal digesta for 3,6,7-trimethyllumazine analysis was treated to remove insoluble fractions (e.g. pancreatin) before HPLC analysis. In brief, all samples were diluted with 0.1% formic acid and then centrifuged at 14,000 rpm for 10 min. Supernatant was taken for analysis. The amount of 3,6,7-trimethyllumazine at different time points was analysed using a reverse-phase HPLC system, which has been previously used to analyse 3,6,7-trimethyllumazine and leptosperin as reported in the literature (Bin Lin et al 2017). In brief, the samples were diluted 5 times in 0.1% v/v formic acid. A Hypersil GOLD column (150×2.1 mm, […]) was used as the stationary phase (25° C.), and the mobile phase will consist of 0.1% formic acid (phase A), and 80:20 acetonitrile: 0.1% formic acid (phase B). […] The signal of 3,6,7-trimethyllumazine was detected at 320 nm.

T1 sequence (P14780 94-707): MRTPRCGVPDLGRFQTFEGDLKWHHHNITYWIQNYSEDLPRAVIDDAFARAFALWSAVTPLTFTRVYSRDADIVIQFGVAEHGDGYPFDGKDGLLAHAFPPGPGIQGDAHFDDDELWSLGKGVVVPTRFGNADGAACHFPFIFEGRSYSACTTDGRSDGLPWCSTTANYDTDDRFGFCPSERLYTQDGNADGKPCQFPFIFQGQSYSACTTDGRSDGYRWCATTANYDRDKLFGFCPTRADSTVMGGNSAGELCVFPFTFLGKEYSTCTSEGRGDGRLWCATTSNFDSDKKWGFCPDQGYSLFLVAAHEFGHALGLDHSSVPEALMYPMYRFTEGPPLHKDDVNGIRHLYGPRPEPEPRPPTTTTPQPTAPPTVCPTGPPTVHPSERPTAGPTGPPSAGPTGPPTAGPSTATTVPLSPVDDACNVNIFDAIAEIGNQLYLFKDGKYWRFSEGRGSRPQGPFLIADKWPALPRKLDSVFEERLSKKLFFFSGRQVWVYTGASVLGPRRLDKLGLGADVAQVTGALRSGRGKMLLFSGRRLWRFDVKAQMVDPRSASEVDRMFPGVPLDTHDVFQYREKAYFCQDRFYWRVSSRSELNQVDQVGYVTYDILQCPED

Cc1nc2[nH]c(=O)n(C)c(=O)c2nc1C [3,6,7-trimethyllumazine]
inhibition of MMP-9 activity (recombinant MMP-9 enzyme): almost completely inhibited
degradation during gastrointestinal digestion ([1]; 50% (w/w) Manuka honey solutions or pure compound directly exposed to digestive media): No significant degradation
initial amount recovered in the digesta ([1]; from four Manuka honey samples, end of 2 h gastric plus 4 h intestinal digestion): ~100%
remaining amount of 3,6,7-trimethyllumazine ([1]; SGF, 0 h, mean ± SD, n=3): 682 ± 90 ng/mL
remaining amount of 3,6,7-trimethyllumazine ([1]; SGF, 0.5 h): 703 ± 57 ng/mL
remaining amount of 3,6,7-trimethyllumazine ([1]; SGF, 1 h): 728 ± 28 ng/mL
remaining amount of 3,6,7-trimethyllumazine ([1]; SGF, 2 h): 688 ± 72 ng/mL
remaining amount of 3,6,7-trimethyllumazine ([1]; SIF, 0 h): 736 ± 6 ng/mL
remaining amount of 3,6,7-trimethyllumazine ([1]; SIF, 1 h): 740 ± 12 ng/mL
remaining amount of 3,6,7-trimethyllumazine ([1]; SIF, 2 h): 732 ± 10 ng/mL
remaining amount of 3,6,7-trimethyllumazine ([1]; SIF, 4 h): 730 ± 3 ng/mL
